Test results as given in US6677361B2, “Topical formulations for the transdermal delivery of niacin and methods of treating hyperlipidemia” (University of Kentucky Research Foundation, priority 2000, dated 2004).

How the values were obtained:
[1] = tested on: hairless mice; assay: Erythematous response after topical application of nicotinic acid esters to hairless mice; format: in vivo; conditions: for cutaneous vasodilation: topical niacin esters; for Erythematous Response: topical, 0.5 to 2.0% (wt/wt) in 200 mg lotion daily for one week, hairless mice
Experimental: Female hairless mice (HRS-J. 6-8 weeks old were used.) These were housed in solid bottom cages provided with sterile feed and water […], with a 14:10 light-dark cycle. The nicotinic acid esters of Example 1 were applied with a gloved finger daily to the backs of hairless mice in 200 mg of Vanicream Lite™ skin care lotion (Pharmaceutical Specialties, Inc., containing purified water, white petrolatum, ceteareth alcohol and ceteareth-20, propylene glycol, sorbitol solution, simethicone, glyceryl monostearate, polyethylene glycol monostearate, sorbic acid and BHT) at concentrations in the range of 0.5 to 2.0% (wt/wt) for one week. Control mice received 200 mg of the lotion alone. […] Dorsal and ventral skin samples were immediately frozen in liquid nitrogen and stored at −80° C.

[2] = tested on: apoB100/CETP double transgenic mice; assay: Plasma lipid profiles of apoB100/CETP double transgenic mice, transdermal lauryl niacin ester vs oral niacin, 90 days; format: in vivo
Experimental: Niacin intake was estimated from the water consumed.
For topical administration, niacin lauryl esters was applied daily to the shaved backs of mice in 200 mg of lotion at concentrations of 1, 2, 5 and 10% (wt/wt) for 13 weeks. Per 25-g mouse, the daily topical doses would be in the range of 34 to 340 mg/kg as niacin. Control mice received equal amounts of the vehicle lotion alone. A lipid analysis was performed as described in Example 4.
Improvement of lipid profiles of apoB100/CETP transgenic mice treated with niacin prodrug. The effect of transdermal delivery of lauryl niacin ester on plasma lipid profiles in a comparison with oral niacin in the apoB100/CETP double transgenic mice for 90 days. A total of six groups of six animals were used in this study. For topical administration, lauryl niacin ester was applied daily to the shaved backs of mice. For oral administration, niacin (sodium salt) was dissolved in the drinking water.

[3] = tested on: mice; conditions: oral niacin; study not named at the place
Experimental: Additionally, a plasma lipid analysis was performed by taking fasting (16 h) blood samples of the hairless mice were obtained at the beginning, at 30 days and 60 days from the retroorbital plexus, and at the end of treatment by cardiac puncture. The animals were euthanized by cardiac injection of pentobarbital prior to blood collection. Blood was collected into microfuge tubes containing 10 μl of heparin, plasma separated by centrifugation at 2,000×g for 15 minutes and stored at -80° C. until analysis within 1 week. Total cholesterol, HDL-C and triglycerides were measured enzymatically, using a clinical chemistry analyzer Syncrhon CX7 by Beckman). Female apoB/CETP double transgenic mice (Taconic Biotechnology, Germantown, N.Y.) were divided into 6 groups and housed in groups of 6 animals per. […] For oral administration, niacin (sodium salt) was dissolved in drinking water at a concentration of 0.75% (0.63% as free acid). Niacin intake was estimated from the water consumed. The estimated daily niacin intake was approximately 1,400 mg/kg. The oral dose used was 760 mg/kg/day and the topical dose was 250 mg/kg/day as niacin.

[4] = topical, daily to shaved backs, one-fourth the dose of the oral treatment
[5] = oral, sodium salt in drinking water

| Structure (SMILES) | Erythematous Response [1] | also measured |
| --- | --- | --- |
| CCCCCCOC(=O)c1cccnc1 [6 carbons] | Yes |  |
| O=C(O)c1cccnc1 [niacin, nicotinic acid] |  | HDL-C fraction lowered by [2, 5]: 13%; LDL fraction lowered by [2, 5]: 45%; total cholesterol lowered by [2, 5]: 29%; triglycerides lowered by [2, 5]: 37%; total cholesterol lowered by [3]: 12% |
| CCCCCCCCCCCCCCCCCCOC(=O)c1cccnc1 [18 carbons] | No |  |
| CCCCCCCCOC(=O)c1cccnc1 [8 carbons] | Yes |  |
| CCCCCCCCCCCCCCCCOC(=O)c1cccnc1 [16 carbons] | No |  |
| CCCCOC(=O)c1cccnc1 [4 carbons] | Yes |  |
| CCCCCCCCCCOC(=O)c1cccnc1 [10 carbons] | Slight | Erythematous Response ([1]; listed as C10 ester): reduced erythematous response |
| COC(=O)c1cccnc1 [1 carbon] | Yes |  |
| CCOC(=O)c1cccnc1 [2 carbons] | Yes |  |

Now from value to compound, other results behind:

| Erythematous Response [1] | Structure (SMILES) | also measured |
| --- | --- | --- |
| No | CCCCCCCCCCCCOC(=O)c1cccnc1 [12 carbons, lauryl nicotinate] | cutaneous vasodilation [1]: no cutaneous vasodilation; HDL-C elevated by [2, 4]: 8%; LDL-C fraction lowered by [2, 4]: 38%; total cholesterol lowered by [2, 4]: 15%; triglycerides lowered by [2, 4]: 33% |
| No | CCCCCCCCCCCCCOC(=O)c1cccnc1 [13 carbons] |  |
| No | CCCCCCCCCCCCCCCOC(=O)c1cccnc1 [15 carbons] |  |
| No | CCCCCCCCCCCCCCOC(=O)c1cccnc1 [14 carbons, myristyl nicotinate] | cutaneous vasodilation [1]: no cutaneous vasodilation |
